In patent publication US8772319B2 (priority 2004, dated 2014):
Like-named read-outs stand apart in the source and are kept apart here.

What was measured:
[1] = biological target: T1, human dopamine transporter (hDAT) (Homo sapiens, UniProt Q01959); assay: biochemical; assay type: binding
[2] = biological target: T2, human serotonin transporter (hSERT) (Homo sapiens, UniProt P31645); assay: biochemical; details: [125I]RTI-55, read-out: SERT binding affinity Ki
[3] = biological target: T3, human norepinephrine transporter (hNET) (Homo sapiens, UniProt P23975); assay: biochemical; details: read-out: NET binding affinity Ki
[4] = biological target: T1, human dopamine transporter (hDAT); assay: cell-based
[5] = biological target: T2, human serotonin transporter (hSERT); assay: cell-based
[6] = biological target: T3, human norepinephrine transporter (hNET); assay: cell-based; details: read-out: Reuptake Inhibition [3H]NE IC50
[7] = Reuptake Inhibition [3H]DA IC50, Table 2-1
[8] = Reuptake Inhibition [3H]5-HT IC50, Table 2-1
[9] = Table 4, [125I]RTI-55, read-out: DAT binding affinity Ki
[10] = Table 4-1, read-out: Reuptake Inhibition [3H]DA IC50
[11] = Table 4-1, read-out: Reuptake Inhibition [3H]5-HT IC50

T3 sequence (P23975 whole entry): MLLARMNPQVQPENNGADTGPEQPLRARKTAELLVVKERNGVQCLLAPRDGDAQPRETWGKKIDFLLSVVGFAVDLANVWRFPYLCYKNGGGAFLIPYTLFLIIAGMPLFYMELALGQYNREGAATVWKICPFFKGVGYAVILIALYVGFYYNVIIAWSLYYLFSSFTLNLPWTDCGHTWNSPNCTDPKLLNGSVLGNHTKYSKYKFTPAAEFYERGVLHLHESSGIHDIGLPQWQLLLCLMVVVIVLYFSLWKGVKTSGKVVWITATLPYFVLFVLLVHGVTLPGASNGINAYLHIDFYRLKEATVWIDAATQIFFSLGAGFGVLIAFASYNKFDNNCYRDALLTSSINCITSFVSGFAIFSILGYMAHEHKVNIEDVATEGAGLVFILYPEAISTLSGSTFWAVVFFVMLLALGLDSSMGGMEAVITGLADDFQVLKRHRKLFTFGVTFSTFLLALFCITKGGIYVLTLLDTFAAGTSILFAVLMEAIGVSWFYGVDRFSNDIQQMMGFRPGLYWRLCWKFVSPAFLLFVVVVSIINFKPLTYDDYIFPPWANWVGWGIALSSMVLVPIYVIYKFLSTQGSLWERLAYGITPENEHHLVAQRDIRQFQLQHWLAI
T2 sequence (P31645 whole entry): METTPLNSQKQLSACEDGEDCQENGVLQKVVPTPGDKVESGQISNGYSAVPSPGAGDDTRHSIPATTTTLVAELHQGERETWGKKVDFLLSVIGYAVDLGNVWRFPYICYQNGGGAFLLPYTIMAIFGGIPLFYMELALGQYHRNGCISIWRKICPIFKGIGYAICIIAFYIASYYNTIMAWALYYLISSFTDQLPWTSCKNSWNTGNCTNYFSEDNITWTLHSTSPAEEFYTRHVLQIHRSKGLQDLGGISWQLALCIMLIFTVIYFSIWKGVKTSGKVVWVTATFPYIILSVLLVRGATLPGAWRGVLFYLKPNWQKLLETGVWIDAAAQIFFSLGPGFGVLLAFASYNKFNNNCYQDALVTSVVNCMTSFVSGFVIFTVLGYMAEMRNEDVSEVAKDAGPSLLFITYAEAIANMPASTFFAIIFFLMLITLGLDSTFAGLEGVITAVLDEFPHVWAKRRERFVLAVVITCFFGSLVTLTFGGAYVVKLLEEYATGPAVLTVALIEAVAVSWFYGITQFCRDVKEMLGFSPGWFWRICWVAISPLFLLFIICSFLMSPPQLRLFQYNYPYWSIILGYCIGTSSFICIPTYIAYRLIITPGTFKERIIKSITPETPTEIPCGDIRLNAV
T1 sequence (Q01959 whole entry): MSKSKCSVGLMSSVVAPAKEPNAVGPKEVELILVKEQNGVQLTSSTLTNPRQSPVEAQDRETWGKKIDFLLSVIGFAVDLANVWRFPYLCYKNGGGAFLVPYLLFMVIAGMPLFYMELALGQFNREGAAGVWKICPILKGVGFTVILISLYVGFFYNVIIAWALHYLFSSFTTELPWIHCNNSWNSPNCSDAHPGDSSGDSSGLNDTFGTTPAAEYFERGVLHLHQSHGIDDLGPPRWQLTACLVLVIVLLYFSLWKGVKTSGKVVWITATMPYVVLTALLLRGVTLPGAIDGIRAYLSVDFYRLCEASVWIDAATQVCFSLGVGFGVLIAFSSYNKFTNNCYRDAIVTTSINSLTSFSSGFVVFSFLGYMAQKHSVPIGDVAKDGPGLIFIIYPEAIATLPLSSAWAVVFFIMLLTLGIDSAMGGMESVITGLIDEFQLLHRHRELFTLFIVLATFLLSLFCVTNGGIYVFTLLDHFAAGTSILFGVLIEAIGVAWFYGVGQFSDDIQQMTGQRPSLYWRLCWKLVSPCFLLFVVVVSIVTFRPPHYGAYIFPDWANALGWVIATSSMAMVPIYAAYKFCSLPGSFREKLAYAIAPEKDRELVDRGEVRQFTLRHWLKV

O=C(NCC1CCCN(CCCCOC(c2ccc(F)cc2)c2ccc(F)cc2)C1)c1cccc(C(F)(F)F)c1 (centres unmarked) [Compound 11]
Ki [1]: 403 ± 81 nM | Binding Ratios NET/DAT ([1]; Table 2): 0.1 | Binding Ratios SERT/DAT ([1]; Table 2): 1.2 | Ki ([2]; Table 2): 496 ± 177 nM | Ki ([3]; Table 2, [125I]RTI-55): 0.049 ± 0.021 µM | IC50 [4, 7]: 46 nM | Discrimination Ratios [3H]DA reuptake/DAT binding ([4]; Table 2-1): 0.1 | IC50 [5, 8]: 511 nM | IC50 ([6]; Table 2-1): 0.053 ± 0.003 µM

NCC1CCCN(CCCCOC(c2ccc(F)cc2)c2ccc(F)cc2)C1 (centres unmarked) [Compound 10]
Ki [1]: 113 nM | Binding Ratios NET/DAT ([1]; Table 2): 4.8 | Binding Ratios SERT/DAT ([1]; Table 2): 7.8 | Ki ([2]; Table 2): 883 nM | Ki ([3]; Table 2, [125I]RTI-55): 0.537 ± 0.112 µM | IC50 [4, 7]: 31 nM | Discrimination Ratios [3H]DA reuptake/DAT binding ([4]; Table 2-1): 0.3 | IC50 [5, 8]: 571 ± 127 nM

O=C1CN(CCCCOC(c2ccc(F)cc2)c2ccc(F)cc2)CCN1 [Compound 27, 2-Oxo-4-[4-[bis(4-fluorophenyl)methoxy]butyl]piperazine]
Binding Ratios NET/DAT ([1]; Table 5): >2.4 | Binding Ratios SERT/DAT ([1]; Table 5): 0.4 | Ki ([1]; Table 5, [125I]RTI-55, oxalate salts, read-out: DAT binding affinity Ki): 4100 ± 790 nM | Ki ([2]; Table 5, oxalate salts): 1800 ± 450 nM | Ki ([3]; Table 5, bound given in μM): > 10 µM | Discrimination Ratios (DR) [3H]DA reuptake/DAT binding ([4]; Table 6): 0.6 | IC50 ([4]; Table 6, read-out: Reuptake Inhibition [3H]DA IC50): 2290 ± 200 nM | IC50 ([5]; Table 6, read-out: Reuptake Inhibition [3H]5-HT IC50): 5340 ± 950 nM | IC50 ([6]; Table 6, bound given in μM): > 10 µM

NCC1(c2ccccc2)CCN(CCCCOC(c2ccc(F)cc2)c2ccc(F)cc2)CC1 [Compound 21]
Binding Ratios SERT/DAT ([1]; Table 4): 2.5 | Ki [1, 9]: 140 ± 53 nM | Ki ([2]; Table 4): 347 ± 152 nM | Discrimination Ratios [3H]DA reuptake/DAT binding ([4]; Table 4-1): 1.1 | IC50 [4, 10]: 155 nM | IC50 [5, 11]: 337 ± 128 nM

O=C(NCc1ccc(F)cc1)NCC1CCCN(CCCCOC(c2ccc(F)cc2)c2ccc(F)cc2)C1 (centres unmarked) [Compound 13]
Ki [1]: 203 ± 68 nM | Binding Ratios NET/DAT ([1]; Table 2): 0.3 | Binding Ratios SERT/DAT ([1]; Table 2): 2.7 | Ki ([2]; Table 2): 545 ± 194 nM | Ki ([3]; Table 2, [125I]RTI-55): 0.06 µM | IC50 [4, 7]: 85 ± 39 nM | Discrimination Ratios [3H]DA reuptake/DAT binding ([4]; Table 2-1): 0.4 | IC50 [5, 8]: 177 ± 18 nM | IC50 ([6]; Table 2-1): 0.136 ± 0.032 µM

O=C(NCc1ccc(F)cc1)N1CCN(CCCCOC(c2ccc(F)cc2)c2ccc(F)cc2)CC1 [Compound 5]
Ki [1]: 437 ± 12 nM | Binding Ratios NET/DAT ([1]; Table 1): 1.6 | Binding Ratios SERT/DAT ([1]; Table 1): 0.2 | Ki ([2]; Table 1): 275 ± 21 nM | Ki ([3]; Table 1, [125I]RTI-55): 0.706 ± 0.153 µM | IC50 ([4]; Reuptake Inhibition [3H]DA IC50, Table 1-1): 53 ± 22 nM | Discrimination Ratios [3H]DA reuptake/DAT binding ([4]; Table 1-1): 0.1 | IC50 ([5]; Reuptake Inhibition [3H]5-HT IC50, Table 1-1): 6 ± 1 nM | IC50 ([6]; Table 1-1): 0.051 ± 0.004 µM

Fc1ccc(C(OCCCCN2CCN(c3cccc(Cl)c3)CC2)c2ccc(F)cc2)cc1 [Compound 33, 1-(3-Chlorophenyl)-4-[4-[bis(4-fluorophenyl)methoxy]butyl]piperazine]
Binding Ratios NET/DAT ([1]; Table 5): 1.7 | Binding Ratios SERT/DAT ([1]; Table 5): 0.8 | Discrimination Ratios (DR) [3H]DA reuptake/DAT binding ([4]; Table 6): 9.5

O=C(NS(=O)(=O)c1ccc(F)cc1)N1CCN(CCCCOC(c2ccc(F)cc2)c2ccc(F)cc2)CC1 [Compound 7]
Binding Ratios NET/DAT ([1]; Table 1): 8.1 | Binding Ratios SERT/DAT ([1]; Table 1): 9.5 | Ki ([1]; Table 1, [125I]RTI-55, read-out: DAT binding affinity Ki): 334 ± 25 nM | Ki ([2]; Table 1): 3160 ± 666 nM | Ki ([3]; Table 1, [125I]RTI-55): 2.69 ± 0.258 µM | Discrimination Ratios [3H]DA reuptake/DAT binding ([4]; Table 1-1): 0.6 | IC50 ([4]; Table 1-1, read-out: Reuptake Inhibition [3H]DA IC50): 206 ± 64 nM | IC50 ([5]; Table 1-1, read-out: Reuptake Inhibition [3H]5-HT IC50): 1620 ± 769 nM | IC50 ([6]; Table 1-1): 0.836 ± 0.093 µM

O=C(CCN1C(=O)C=CC1=O)NCC1(c2ccccc2)CCN(CCCCOC(c2ccc(F)cc2)c2ccc(F)cc2)CC1 [Compound 25]
Binding Ratios SERT/DAT ([1]; Table 4): 7.7 | Ki [1, 9]: 827 ± 197 nM | Ki ([2]; Table 4): 6400 ± 2680 nM | Discrimination Ratios [3H]DA reuptake/DAT binding ([4]; Table 4-1): 1.2 | IC50 [4, 10]: 988 ± 305 nM | IC50 [5, 11]: 3120 ± 1470 nM

Fc1ccc(C(OCCCCN2CCN(c3ccc(F)cc3)CC2)c2ccc(F)cc2)cc1 [Compound 31, 1-(4-Fluorophenyl)-4-[4-[bis(4-fluorophenyl)methoxy]butyl]piperazine]
Binding Ratios NET/DAT ([1]; Table 5): 7.8 | Binding Ratios SERT/DAT ([1]; Table 5): 1.3 | Discrimination Ratios (DR) [3H]DA reuptake/DAT binding ([4]; Table 6): 23

CC(=O)NCC1(c2ccccc2)CCN(CCCCOC(c2ccc(F)cc2)c2ccc(F)cc2)CC1 [Compound 23]
Binding Ratios SERT/DAT ([1]; Table 4): 1.5 | Ki [1, 9]: 172 ± 14 nM | Ki ([2]; Table 4): 258 ± 76 nM | Discrimination Ratios [3H]DA reuptake/DAT binding ([4]; Table 4-1): 0.8 | IC50 [4, 10]: 129 ± 32 nM | IC50 [5, 11]: 359 ± 78 nM
